Laboratory results from patent publication US20260240844A1, “INHIBITORS OF CHD1L AND USES THEREOF” (The Regents of the University of Colorado, a body corporate, priority 2023, published 2026).
Where two headings read alike, the source gives them in different places. One block for each compound: values may come before it.

Experiments:
[1] = test system: HCT116 Parental cells; assay: HCT116 Parental cell viability, combination with chemotherapy; format: cell-based; settings: Homo sapiens, HCT-116, HCT116 cells, read-out: IC50 5-FU
[2] = test system: CRC patient samples; assay: Tumor growth inhibition index of CRC patient samples; format: in vivo
Excerpt: Analytical measurements include tumor volume by caliper and survival. […] Using this information, 8 patient samples with diverse genetic background mutations, stage of cancer, site of cancer (primary vs metastatic) were initially selected (Table 2).

[3] = test system: SW948 tumor organoids; assay: cells
Procedure: ATM is an important protein involved in the initial stages of the DNA damage response. […] ATM mutations are important markers being developed to identify metastatic CRC (mCRC) patients that may be sensitive to DNA damaging chemotherapy.
Synergy was assessed using the Bliss model.

[4] = test system: SUM149PT cells; assay: Phosphatidylserine externalization, membrane integrity and DNA fragmentation; format: cell-based
Procedure: Phosphatidylserine externalization and membrane integrity—phosphatidylserine externalization and membrane integrity kinetics were analyzed using the RealTime-Glo™ Annexin V Apoptosis and Necrosis Assay (Promega, JA1012) according to the manufacturer's instructions. 8,000 cells were seeded per well in 96 well solid bottom white plates (Corning) in 100 μL and allowed to attach overnight. Then, 75 μL of media were removed, followed by the addition of 25 μL of the test compounds at 4× desired final concentration and 50 μL of the 2× detection reagent. Luminescence and fluorescence were measured overtime using an EnVision plate reader (PerkinElmer). No-cell and medium-only controls were used for background correction.
PARthanatos might be accompanied by other events also occurring during apoptosis or necrosis like mitochondrial depolarization, phosphatidylserine (PS) externalization, loss of membrane integrity and large-scale DNA fragmentation. To better characterize this mechanism, PS externalization and membrane integrity were studied using a real-time multiplex assay that monitors Annexin V binding to PS and simultaneous loss of cell membrane integrity with a membrane impermeable DNA binding dye. […] In contrast, CHD1Li caused a rapid and simultaneous increase of both when combined with SOC drugs, shifting the kinetics to a more non-apoptotic phenotype.

[5] = target: T1, full length CHD1L (Homo sapiens, UniProt Q86WJ1); assay: Nucleosome remodeling FRET assay; format: biochemical; settings: full length-CHD1L pre-incubated with 10 μM for 10 minutes
T1 construct: host or cells: Rosetta 2 (DE3) pLysS cells (E. coli) for CHD1L
Excerpt: For that, mononucleosomes composed of a human histone octamer containing a Cy5-tagged H2A, wrapped by a Cy3-labelled DNA template (EpiCypher, Cat #16-4201) were used. […] Right after the addition of ATP the assay was monitored overtime using Cy3 excitation (531 nm) and simultaneous detection of Cy3 (595 nm) and Cy5 (685 nm) emission signals using an EnVision plate reader (PerkinElmer). Data are expressed as the ratio of Cy3/Cy5 signal overtime.
Inhibition of nucleosome remodeling by CHD1L inhibitors blocks DDR signaling. CHD1L's main role is chromatin remodeling and DNA relaxation, moving from a tightly condensed DNA to an accessible state allowing for DNA transcription and repair. Thus, the effect of CHD1L ATPase inhibition on its nucleosome remodeling activity using a FRET-based assay was used. The FRET assay measures the distancing of Cy3 on DNA and Cy5 on the H2A histone upon nucleosome sliding.

[6] = test system: MCF-7 cells; assay: Tumor organoid viability, MCF-7; format: cell-based; settings: Homo sapiens, MCF7; MCF-7 (luminal breast cancer); read-out: IC50, tumor organoid viability, single agent
Excerpt: The tumor organoid viability assay is as described in Example 9.

[7] = test system: SUM149 and MDA-MB-231 cells; assay: DDR biomarkers in breast cancer cells; format: cell-based; settings: 4 μM
Excerpt: (§1) Etoposide was used as a control to show upregulation of DDR pathway biomarkers.

[8] = Toxicity in mice; format: in vivo
[9] = test system: Colo679 cells; assay: DDR biomarkers (pATM, RAD51, 53BP1, γ-H2AX) in Colo679 cells; format: cell-based; settings: 4 μM
Excerpt: as §1

[10] = test system: SW620 tumor organoids; settings: SW620 tumor organoids
[11] = test system: colon cancer mouse xenograft; assay: Colon cancer mouse xenograft model; format: in vivo, mice
Procedure: The tumor volume was monitored over 30 days, and the tumor volume was measured after 30 days. The tumor was extracted from the mice, and the dimensions of the tumor were measured to provide a tumor volume in mm^3.
Key: PO=oral; IP=intraperitoneal; ANOVA significance: *: P<0.05; **: P<0.0003; ***: P<0.0001.

[12] = test system: SW620 M-phenotype mouse xenografts; assay: Irinotecan drug resistant SW620 M-phenotype mouse xenografts; format: in vivo
[13] = target: PARP1 (Homo sapiens, UniProt P09874); assay: PARP1 trapping (in situ subcellular fractionation, immunofluorescence)
[14] = target: PARP2 (Homo sapiens, UniProt Q9UGN5); assay: PARP2 trapping (in situ subcellular fractionation, immunofluorescence); format: cell-based; design: endogenous in cells; host or cells: SUM149PT; settings: SUM149PT cells, 0.01% MMS, 4 h
[15] = test system: HCT116 tumor organoids; assay: Viability of isolated EMT phenotype HCT116 tumor organoids; format: cell-based; settings: Homo sapiens, HCT-116, 72 h
[16] = SW948 tumor organoids, combined with 5FU
[17] = SW948 tumor organoids, combined with SN38

Chain of PARP1 (P09874 whole entry): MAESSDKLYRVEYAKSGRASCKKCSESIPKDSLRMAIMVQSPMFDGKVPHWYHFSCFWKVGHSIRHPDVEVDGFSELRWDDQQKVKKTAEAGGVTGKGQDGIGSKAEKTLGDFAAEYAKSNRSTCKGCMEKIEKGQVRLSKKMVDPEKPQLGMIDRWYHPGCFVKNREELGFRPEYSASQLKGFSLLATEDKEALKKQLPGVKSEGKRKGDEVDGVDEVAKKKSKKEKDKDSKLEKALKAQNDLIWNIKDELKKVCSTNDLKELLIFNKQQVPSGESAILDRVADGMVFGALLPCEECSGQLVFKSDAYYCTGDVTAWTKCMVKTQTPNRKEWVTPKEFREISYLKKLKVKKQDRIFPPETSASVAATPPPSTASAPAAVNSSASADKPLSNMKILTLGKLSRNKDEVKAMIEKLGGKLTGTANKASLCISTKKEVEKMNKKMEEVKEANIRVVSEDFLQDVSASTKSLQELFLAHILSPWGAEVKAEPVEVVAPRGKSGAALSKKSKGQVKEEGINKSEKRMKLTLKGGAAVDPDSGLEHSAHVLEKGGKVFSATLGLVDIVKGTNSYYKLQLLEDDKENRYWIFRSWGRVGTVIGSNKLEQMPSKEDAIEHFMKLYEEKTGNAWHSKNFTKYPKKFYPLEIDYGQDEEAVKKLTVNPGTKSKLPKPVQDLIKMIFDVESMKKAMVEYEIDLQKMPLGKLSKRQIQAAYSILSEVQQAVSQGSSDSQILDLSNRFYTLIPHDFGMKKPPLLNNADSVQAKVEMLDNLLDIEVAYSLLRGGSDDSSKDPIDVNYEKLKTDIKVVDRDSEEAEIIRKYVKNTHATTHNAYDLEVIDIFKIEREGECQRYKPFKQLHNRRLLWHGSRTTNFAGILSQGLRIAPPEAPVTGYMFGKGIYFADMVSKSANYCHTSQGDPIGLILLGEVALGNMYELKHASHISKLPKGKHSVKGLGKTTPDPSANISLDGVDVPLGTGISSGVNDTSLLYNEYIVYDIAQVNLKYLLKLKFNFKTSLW
Chain of PARP2 (Q9UGN5 whole entry): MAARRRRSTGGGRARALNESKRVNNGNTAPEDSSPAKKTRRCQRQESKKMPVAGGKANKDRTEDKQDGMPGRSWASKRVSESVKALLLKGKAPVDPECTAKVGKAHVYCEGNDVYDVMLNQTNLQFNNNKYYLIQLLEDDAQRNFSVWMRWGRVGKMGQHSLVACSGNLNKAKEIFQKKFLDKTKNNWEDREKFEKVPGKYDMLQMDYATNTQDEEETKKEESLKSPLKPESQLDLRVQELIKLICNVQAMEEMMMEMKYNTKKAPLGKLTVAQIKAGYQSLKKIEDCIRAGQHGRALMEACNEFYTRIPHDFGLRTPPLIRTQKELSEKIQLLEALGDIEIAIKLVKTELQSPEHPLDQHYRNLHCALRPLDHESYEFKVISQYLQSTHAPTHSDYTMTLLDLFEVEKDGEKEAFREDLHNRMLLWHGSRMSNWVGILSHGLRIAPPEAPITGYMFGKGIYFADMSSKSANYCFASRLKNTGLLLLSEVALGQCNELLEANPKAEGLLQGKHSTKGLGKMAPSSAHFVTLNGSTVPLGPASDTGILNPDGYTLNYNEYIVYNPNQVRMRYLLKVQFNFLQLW
T1 sequence (Q86WJ1 16-879): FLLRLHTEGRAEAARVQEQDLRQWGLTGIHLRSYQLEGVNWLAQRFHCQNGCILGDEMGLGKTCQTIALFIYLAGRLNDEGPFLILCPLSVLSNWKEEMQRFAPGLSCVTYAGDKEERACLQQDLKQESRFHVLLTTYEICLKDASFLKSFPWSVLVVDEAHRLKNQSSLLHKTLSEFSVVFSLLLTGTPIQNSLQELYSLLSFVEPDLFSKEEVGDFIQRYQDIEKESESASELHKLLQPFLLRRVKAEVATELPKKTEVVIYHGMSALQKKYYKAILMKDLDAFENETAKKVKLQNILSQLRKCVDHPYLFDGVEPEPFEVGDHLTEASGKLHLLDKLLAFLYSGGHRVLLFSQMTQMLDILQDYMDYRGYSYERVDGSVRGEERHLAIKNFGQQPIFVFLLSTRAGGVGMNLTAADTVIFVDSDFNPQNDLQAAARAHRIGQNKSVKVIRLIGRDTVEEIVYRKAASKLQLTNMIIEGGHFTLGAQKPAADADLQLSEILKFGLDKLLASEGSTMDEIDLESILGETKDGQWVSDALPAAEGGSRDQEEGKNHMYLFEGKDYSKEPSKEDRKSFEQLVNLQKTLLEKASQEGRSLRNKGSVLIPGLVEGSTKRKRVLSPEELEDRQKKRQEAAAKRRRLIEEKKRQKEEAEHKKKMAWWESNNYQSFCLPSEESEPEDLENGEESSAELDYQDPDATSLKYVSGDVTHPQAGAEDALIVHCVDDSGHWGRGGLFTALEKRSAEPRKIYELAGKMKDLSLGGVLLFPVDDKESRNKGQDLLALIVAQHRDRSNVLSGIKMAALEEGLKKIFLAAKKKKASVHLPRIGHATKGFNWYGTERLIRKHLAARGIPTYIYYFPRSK

Compound: O=c1[nH]cc(F)c(=O)[nH]1 [Compound 5-FU, 5-fluorouracil]
IC50 ([1]; Compound 11 0 μM): 95.7 µM
IC50 ([1]; Compound 11 2.5 μM): 192 µM
IC50 ([1]; Compound 11 3 μM): 63.4 µM
IC50 ([1]; Compound 11 3.5 μM): 43.2 µM
IC50 ([1]; Compound 12 0 μM): 103 µM
IC50 ([1]; Compound 12 5 μM): 34.6 µM
IC50 ([1]; Compound 12 6 μM): 11.5 µM
5FU Response (tumor growth inhibition index) ([2]; patient sample CRC001, Primary, KRAS): 185.8%
5FU Response (tumor growth inhibition index) ([2]; patient sample CRC026, Metastatic): 77.3%
5FU Response (tumor growth inhibition index) ([2]; patient sample CRC042, Primary, KRAS, TP53): 107.8%
5FU Response (tumor growth inhibition index) ([2]; patient sample CRC102, Metastatic, KRAS): 113.1%
IC50 ([3]; Homo sapiens, SW948, read-out: IC50 of chemotherapy alone): 302 µM
increase in potency of the chemotherapy ([3]; SW948 tumor organoids, combined with Compound 6): ~300 fold

nucleosome remodeling rate [5]: reduction of the remodeling rate
Compound: Cc1cc(Nc2ccc(NC(=O)Cc3cccs3)cc2)nc(N2CCCC2)n1 [Compound 6, N-(4-((6-methyl-2-(pyrrolidin-1-yl)pyrimidin-4-yl)amino)phenyl)-2-(thiophen-2-yl)acetamide]
DNA fragmentation (Hoechst 33342) [4]: large-scale fragmentation of DNA

Compound: Cc1cc(Nc2ccc(NC(=O)Cc3cc(Br)cs3)cc2)nc(N2CCCC2)n1 [Compound 6.11, 2-(4-bromothiophen-2-yl)-N-(4-((6-methyl-2-(pyrrolidin-1-yl)pyrimidin-4-yl)amino)phenyl)acetamide]
IC50 [6]: ~1.8 µM
amounts of γ-H2AX and 53BP1 [7]: overall decreases in the amounts of γ-H2AX and 53BP1
toxicity by complete blood count (CBC) panel and H&E histopathology of liver, heart, bone marrow ([8]; mice, 100 mg/kg Compound 6.11 daily for 30 days): no toxicity
toxicities ([8]; mice, daily dosing up to 100 mg/kg, preliminary studies): no significant toxicities
toxicity by CBC chemistry and histology of liver, heart, bone marrow ([8]; nude mice, PO 100 mg/kg 1×/day 7-days/week, alone or combined with irinotecan): no toxicity
amount of 53BP1 [9]: decrease the amount of 53BP1
amount of RAD51 [9]: increase the amount of RAD51
amount of pATM [9]: minimal effect
γ-H2AX concentrations [9]: decreased
synergy score ([10]; Compound 6.11 2.75 μM combined with 5FU): ~ 30
decrease in tumor volume ([11]; Compound 6.11 5 mg/kg daily IP + irinotecan 50 mg/kg 1×/week IP, after 20 days): approximately 50%
metastatic tumor burden (bioluminescent imaging, % change total flux) ([11]; Compound 6.11 100 mg/kg 5×/week oral + irinotecan 15 mg/kg 1×/week IP): ~0
survival ([11]; combination of Compound 6.11 and irinotecan): improved survival rates
inhibition of tumor growth vs irinotecan alone ([12]; Compound 6.11 5 mg/kg IP 1×/day + irinotecan 50 mg/kg 1×/week): significantly more effective at inhibiting tumor growth
increase in mouse survival ([12]; Compound 6.11 5 mg/kg IP 1×/day + irinotecan 50 mg/kg 1×/week vs irinotecan alone): about a month
increase in mouse survival compared to irinotecan alone ([12]; low doses of Compound 6.11 combined with irinotecan, drug resistant CRC nude mouse xenografts): 30 days
increase in PARP1 trapping ([13]; SUM149PT cells, 0.01% MMS, 4 h): 10 fold
PARP1/2 trapping compared to olaparib alone ([13]; non-trapping doses of Compound 6.11 combined with olaparib): significant increase in PARP1/2 trapping
Mean Synergy Score [3, 16]: ~ 72
maximum synergy score [3, 16]: ~82
Mean Synergy Score [3, 17]: ~ 74
maximum synergy score [3, 17]: ~100
increase in PARP2 trapping [14]: 2 fold

Compound: COc1cccc2c1C(=O)c1c(O)c3c(c(O)c1C2=O)C[C@@](O)(C(=O)CO)C[C@@H]3O[C@H]1C[C@H](N)[C@H](O)[C@H](C)O1 [doxorubicin]
phosphatidylserine externalization / membrane integrity kinetics ([4]; real-time Annexin V assay): apoptotic kinetic phenotype

Compound: O=C(c1cc(Cc2n[nH]c(=O)c3ccccc23)ccc1F)N1CCN(C(=O)C2CC2)CC1 [olaparib]
enhancement of olaparib potency ([10]; combined with Compound 6.11): ~ 355 fold
IC50 ([15]; combined with Compound 6, read-out: IC50 olaparib): ~30 µM
IC50 ([15]; olaparib alone): ~600 µM
PARP2 trapping [14]: trapped in a dose-dependent manner both PARP1 and PARP2
